Test results as given in PubChem BioAssay (NCI).
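Values below derive from 48-hour exposures of cells grown in 96-well plates, with endpoints linearly interpolated between the two concentrations bracketing the appropriate inhibition level. TGI denotes the concentration required for complete inhibition of growth.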

Legend:
Assay in all cases: growth of human tumour cells (NCI), 48 h
HCT-15 colon = test system: HCT-15 colon
OVCAR-8 ovarian = test system: OVCAR-8 ovarian
NCI-H23 lung = test system: NCI-H23 lung
RPMI-8226 leukemia = test system: RPMI-8226 leukemia
SW-620 colon = test system: SW-620 colon
MOLT-4 leukemia = test system: MOLT-4 leukemia
SN12C renal = test system: SN12C renal
A549 NSCLC = test system: A549 NSCLC
UACC-257 melanoma = test system: UACC-257 melanoma
786-0 renal = test system: 786-0 renal
PC-3 prostate = test system: PC-3 prostate
UACC-62 melanoma = test system: UACC-62 melanoma
COLO 205 colon = test system: COLO 205 colon
SR leukemia = test system: SR leukemia
KM12 colon = test system: KM12 colon
M14 melanoma = test system: M14 melanoma
MCF7 breast = test system: MCF7 breast
MDA-MB-231 breast = test system: MDA-MB-231 breast
HL-60(TB) leukemia = test system: HL-60(TB) leukemia
DU-145 prostate = test system: DU-145 prostate
K-562 leukemia = test system: K-562 leukemia
T-47D breast = test system: T-47D breast
EKVX NSCLC = test system: EKVX NSCLC
SNB-75 CNS = test system: SNB-75 CNS
SK-MEL-28 melanoma = test system: SK-MEL-28 melanoma
HT29 colon = test system: HT29 colon
HOP-62 NSCLC = test system: HOP-62 NSCLC
SK-MEL-5 melanoma = test system: SK-MEL-5 melanoma
SF-268 CNS = test system: SF-268 CNS
HCC-2998 colon = test system: HCC-2998 colon
CCRF-CEM leukemia = test system: CCRF-CEM leukemia
RXF 393 renal = test system: RXF 393 renal
CAKI-1 renal = test system: CAKI-1 renal
TK-10 renal = test system: TK-10 renal
MDA-N = test system: MDA-N
SK-OV-3 ovarian = test system: SK-OV-3 ovarian
LOX IMVI melanoma = test system: LOX IMVI melanoma
MALME-3M melanoma = test system: MALME-3M melanoma
IGROV1 ovarian = test system: IGROV1 ovarian
SF-295 CNS = test system: SF-295 CNS

Measured: TGI

CCCCCCCCCC[C@@H](OC(C)=O)[C@@H]1CC[C@@H]([C@@H]2CC[C@@H]([C@@H](O)CC#C/C=C/CCCCCCC[C@@]3(Sc4ccccc4)C[C@H](C)OC3=O)O2)O1
> 10 µM: HCT-15 colon | OVCAR-8 ovarian | NCI-H23 lung | RPMI-8226 leukemia | SW-620 colon | MOLT-4 leukemia | SN12C renal | A549 NSCLC | UACC-257 melanoma | 786-0 renal | PC-3 prostate | UACC-62 melanoma | COLO 205 colon | SR leukemia | KM12 colon | M14 melanoma | MCF7 breast | MDA-MB-231 breast | HL-60(TB) leukemia | DU-145 prostate | K-562 leukemia | T-47D breast | EKVX NSCLC | SNB-75 CNS | SK-MEL-28 melanoma | HT29 colon | HOP-62 NSCLC | SK-MEL-5 melanoma | SF-268 CNS | HCC-2998 colon | CCRF-CEM leukemia | RXF 393 renal | CAKI-1 renal | TK-10 renal | MDA-N | SK-OV-3 ovarian | LOX IMVI melanoma | MALME-3M melanoma | IGROV1 ovarian | SF-295 CNS
